We go through 20 compounds from patent publication US8269026B2, “Lupane derivatives useful for treating HIV” (priority 2008, dated 2012).

SMILES strings stand for the structures. Structures can show the parent of a compound that is named as a salt.

The subject of the first assay is HIV-1 (HIVIIIB) replication in MT2 cell line. As to the kind of experiment: HIV-1 replication in MT2 cell line with and without 30% human serum (viral RT activity in supernatant). The class given is cell-based. As to conditions: Human immunodeficiency virus 1, MT2 cells, with 30% human serum, average IC50 if tested more than once, read-out: MT2 (HIVIIIB) with HS 30% IC50 range. Summed up: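 MT2 cells infected with HIV-1 IIIB at MOI 0.5 for 3 h, washed, seeded at 0.5×10^6/ml in RPMI/10% FBS with serially diluted compound, with or without 30% human serum; medium and compound refreshed on day 3. RT activity in supernatant at day 5; IC50 and IC90 derived.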
With `CC(C)C1=C2[C@H]3CC[C@@H]4[C@@]5(C)CC[C@H](OC(=O)CC(C)(C)C(=O)O)C(C)(C)[C@@H]5CC[C@@]4(C)[C@]3(C)CC[C@@]2(NC(=O)c2ccccc2F)CC1=O` [19-11, 3β-O-(3′,3′-Dimethylsuccinyl)-17β-(2-fluorobenzamido)-21-oxolup-18-ene], the IC50 (usually the midpoint of a concentration-inhibition curve) is < 199 nM. In the case of `CC(C)C1=C2[C@H]3CC[C@@H]4[C@@]5(C)CC[C@H](OC(=O)CC(C)(C)C(=O)O)C(C)(C)[C@@H]5CC[C@@]4(C)[C@]3(C)CC[C@@]2(NC(=O)c2cccc(F)c2)CC1=O` [19-12, 3β-O-(3′,3′-Dimethylsuccinyl)-17β-(3-fluorobenzamido)-21-oxolup-18-ene], the IC50 is < 199 nM. Same read-out and setting: in the case of `CC(C)C1=C2[C@H]3CC[C@@H]4[C@@]5(C)CC[C@H](OC(=O)CC(C)(C)C(=O)O)C(C)(C)[C@@H]5CC[C@@]4(C)[C@]3(C)CC[C@@]2(NC(=O)c2ccc(F)cc2)CC1=O` [19-13, 3β-O-(3′,3′-Dimethylsuccinyl)-17β-(4-fluorobenzamido)-21-oxolup-18-ene] it was < 199 nM; in that of `CC(C)C1=C2[C@H]3CC[C@@H]4[C@@]5(C)CC[C@H](OC(=O)CC(C)(C)C(=O)O)C(C)(C)[C@@H]5CC[C@@]4(C)[C@]3(C)CC[C@@]2(NC(=O)c2ccncc2)CC1=O` [19-14, 3β-O-(3′,3′-Dimethylsuccinyl)-17β-(pyridin4-yl)amido-21-oxolup-18-ene], < 199 nM. As for `CC(C)C1=C2[C@H]3CC[C@@H]4[C@@]5(C)CC[C@H](OC(=O)CC(C)(C)C(=O)O)C(C)(C)[C@@H]5CC[C@@]4(C)[C@]3(C)CC[C@@]2(NC(=O)c2ccccn2)CC1=O` [19-15, 3β-O-(3′,3′-Dimethylsuccinyl)-17β-(Pyridin-2-yl)amido-21-oxolup-18-ene hydrochloride], the IC50 was < 199 nM. Still for that read-out and setting: then `CC(C)C1=C2[C@H]3CC[C@@H]4[C@@]5(C)CC[C@H](OC(=O)CC(C)(C)C(=O)O)C(C)(C)[C@@H]5CC[C@@]4(C)[C@]3(C)CC[C@@]2(NC(=O)c2cnccn2)CC1=O` [19-16, 3β-O-(3′,3′-Dimethylsuccinyl)-17β-(pyrazin-2-yl)amido-21-oxolup-18-ene], with < 199 nM. The same measure, in the same setting: in the case of `CC(C)C1=C2[C@H]3CC[C@@H]4[C@@]5(C)CC[C@H](OC(=O)CC(C)(C)C(=O)O)C(C)(C)[C@@H]5CC[C@@]4(C)[C@]3(C)CC[C@@]2(NC(=O)c2ccn(C)n2)CC1=O` [19-17, 3β-O-(3′,3′-Dimethylsuccinyl)-17β-(1-methyl-1H-pyrazole-3-amido)-21-oxolup-18-ene] it was < 199 nM. Still for that read-out and setting: then `CC(C)C1=C2[C@H]3CC[C@@H]4[C@@]5(C)CC[C@H](OC(=O)CC(C)(C)C(=O)O)C(C)(C)[C@@H]5CC[C@@]4(C)[C@]3(C)CC[C@@]2(NC(=O)c2cncn2C)CC1=O` [19-18, 3β-O-(3′,3′-Dimethylsuccinyl)-17β-(1-methyl-1H-imidazole-5-amido)-21-oxolup-18-ene], with < 199 nM; and `CC(C)C1=C2[C@H]3CC[C@@H]4[C@@]5(C)CC[C@H](OC(=O)CC(C)(C)C(=O)O)C(C)(C)[C@@H]5CC[C@@]4(C)[C@]3(C)CC[C@@]2(NC(=O)c2cn(C)cn2)CC1=O` [19-19, 3β-O-(3′,3′-Dimethylsuccinyl)-17β-(1-methyl-1H-imidazole-4-amido)-21-oxolup-18-ene], with < 199 nM; and `CC(C)C1=C2[C@H]3CC[C@@H]4[C@@]5(C)CC[C@H](OC(=O)CC(C)(C)C(=O)O)C(C)(C)[C@@H]5CC[C@@]4(C)[C@]3(C)CC[C@@]2(NC(=O)c2cccs2)CC1=O` [19-20, 3β-O-(3′,3′-Dimethylsuccinyl)-17β-(2-thiophene)amido-21-oxolup-18-ene], with < 199 nM. As to `CC(C)C1=C2[C@H]3CC[C@@H]4[C@@]5(C)CC[C@H](OC(=O)CC(C)(C)C(=O)O)C(C)(C)[C@@H]5CC[C@@]4(C)[C@]3(C)CC[C@@]2(NC(=O)c2nccs2)CC1=O` [19-21, 3β-O-(3′,3′-Dimethylsuccinyl)-17β-(1,3-thiazole-2-amido)-21-oxolup-18-ene], the IC50 was < 199 nM. In the case of `CC(C)C1=C2C3CCC4[C@@]5(C)CC[C@H](OC(=O)CC(C)(C)C(=O)O)C(C)(C)C5CC[C@@]4(C)[C@]3(C)CC[C@@]2(NC(=O)c2ncccn2)CC1=O` (stereo partly drawn) [19-22, 3β-O-(3′,3′-Dimethylsuccinyl)-17β-(pyrimidine-2-amido)-21-oxolup-18-ene], the IC50 is < 199 nM. Same read-out and setting: in the case of `CC(C)C1=C2C3CCC4[C@@]5(C)CC[C@H](OC(=O)CC(C)(C)C(=O)O)C(C)(C)C5CC[C@@]4(C)[C@]3(C)CC[C@@]2(NC(=O)c2cncnc2)CC1=O` (stereo partly drawn) [19-23, 3β-O-(3′,3′-Dimethylsuccinyl)-17β-(pyrimidine-5-amido)-21-oxolup-18-ene] it was < 199 nM. Regarding `Cc1cc(C(=O)N[C@@]23CC[C@]4(C)C(CCC5[C@@]6(C)CC[C@H](OC(=O)CC(C)(C)C(=O)O)C(C)(C)C6CC[C@]54C)C2=C(C(C)C)C(=O)C3)no1` (stereo partly drawn) [19-24, 3β-O-(3′,3′-Dimethylsuccinyl)-17β-(5-methylisoxazole-3-amido)-21-oxolup-18-ene], the IC50 is < 199 nM. Take `CC(C)C1=C2C3CCC4[C@@]5(C)CC[C@H](OC(=O)CC(C)(C)C(=O)O)C(C)(C)C5CC[C@@]4(C)[C@]3(C)CC[C@@]2(NC(=O)c2ccncn2)CC1=O` (stereo partly drawn) [19-25, 3β-O-(3′,3′-Dimethylsuccinyl)-17β-(pyrimidine-4-amido)-21-oxolup-18-ene]: the IC50 was < 199 nM.

With `CC(C)C1=C2C3CCC4[C@@]5(C)CC[C@H](OC(=O)CC(C)(C)C(=O)O)C(C)(C)C5CC[C@@]4(C)[C@]3(C)CC[C@@]2(NC(=O)c2nccn2C)CC1=O` (stereo partly drawn) [19-26, 3β-O-(3′,3′-Dimethylsuccinyl)-17β-(1-methyl-1H-imidazole-2-amido)-21-oxolup-18-ene], the concentration for half-maximal inhibition (IC50) was < 199 nM. With `CC(C)C1=C2C3CCC4[C@@]5(C)CC[C@H](OC(=O)CC(C)(C)C(=O)O)C(C)(C)C5CC[C@@]4(C)[C@]3(C)CC[C@@]2(NC(=O)c2cscn2)CC1=O` (stereo partly drawn) [19-27, 3β-O-(3′,3′-Dimethylsuccinyl)-17β-(1,3-thiazole-4-amido)-21-oxolup-18-ene], the IC50 was < 199 nM. Consider `CC(C)C1=C2C3CCC4[C@@]5(C)CC[C@H](OC(=O)CC(C)(C)C(=O)O)C(C)(C)C5CC[C@@]4(C)[C@]3(C)CC[C@@]2(NC(=O)c2cncs2)CC1=O` (stereo partly drawn) [19-28, 3β-O-(3′,3′-Dimethylsuccinyl)-17β-(1,3-thiazole-5-amido)-21-oxolup-18-ene], for which the half-inhibitory concentration (IC50) was < 199 nM. On to `CC(C)C1=C2C3CCC4[C@@]5(C)CC[C@H](OC(=O)CC(C)(C)C(=O)O)C(C)(C)C5CC[C@@]4(C)[C@]3(C)CC[C@@]2(NC(=O)Cc2ccccc2)CC1=O` (stereo partly drawn) [19-29, 3β-O-(3′,3′-Dimethylsuccinyl)-17β-phenylacetamido-21-oxolup-18-ene], for which the IC50 is < 199 nM. Still for that read-out and setting: then `CC(C)C1=C2C3CCC4[C@@]5(C)CC[C@H](OC(=O)CC(C)(C)C(=O)O)C(C)(C)C5CC[C@@]4(C)[C@]3(C)CC[C@@]2(NC(=O)C2CCOCC2)CC1=O` (stereo partly drawn) [19-30, 3β-O-(3′,3′-Dimethylsuccinyl)-17β-tetrahydro-pyran-4-carbonylamino-21-oxolup-18-ene], with < 199 nM.

The assay is the same for the next values; noted with them: Human immunodeficiency virus 1, MT2 cells, without human serum, average IC50 if tested more than once, read-out: MT2 (HIVIIIB) IC50 range.
In the case of `CC(C)C1=C2[C@H]3CC[C@@H]4[C@@]5(C)CC[C@H](OC(=O)CC(C)(C)C(=O)O)C(C)(C)[C@@H]5CC[C@@]4(C)[C@]3(C)CC[C@@]2(NC(=O)c2ccccc2F)CC1=O` [19-11, 3β-O-(3′,3′-Dimethylsuccinyl)-17β-(2-fluorobenzamido)-21-oxolup-18-ene], the IC50 is < 199 nM. Still for that read-out and setting: in the case of `CC(C)C1=C2[C@H]3CC[C@@H]4[C@@]5(C)CC[C@H](OC(=O)CC(C)(C)C(=O)O)C(C)(C)[C@@H]5CC[C@@]4(C)[C@]3(C)CC[C@@]2(NC(=O)c2ccc(F)cc2)CC1=O` [19-13, 3β-O-(3′,3′-Dimethylsuccinyl)-17β-(4-fluorobenzamido)-21-oxolup-18-ene] it was < 199 nM; in that of `CC(C)C1=C2C3CCC4[C@@]5(C)CC[C@H](OC(=O)CC(C)(C)C(=O)O)C(C)(C)C5CC[C@@]4(C)[C@]3(C)CC[C@@]2(NC(=O)c2cncnc2)CC1=O` (stereo partly drawn) [19-23, 3β-O-(3′,3′-Dimethylsuccinyl)-17β-(pyrimidine-5-amido)-21-oxolup-18-ene], < 199 nM; in that of `Cc1cc(C(=O)N[C@@]23CC[C@]4(C)C(CCC5[C@@]6(C)CC[C@H](OC(=O)CC(C)(C)C(=O)O)C(C)(C)C6CC[C@]54C)C2=C(C(C)C)C(=O)C3)no1` (stereo partly drawn) [19-24, 3β-O-(3′,3′-Dimethylsuccinyl)-17β-(5-methylisoxazole-3-amido)-21-oxolup-18-ene], < 199 nM.
